Reference: patent US11453690B2, “Receptor inhibitor, pharmaceutical composition comprising same, and use thereof” (BEIJING TIDE PHARMACEUTICAL CO., LTD., priority 2018, dated 2022)

Target: AT2 Receptor (AT2R) (Homo sapiens (Human), UniProt P50052)
Experiment: Measurement of inhibitory activity on AT2 receptor (Tag-lite HTRF, Tb-labeled AT2R cells, angiotensin receptor red agonist)
Format: binding
Details: 1 h room temperature
Procedure: Measurement of Inhibitory Activity on AT1 Receptor ([…])/AT2 Receptor (AT2R)
Through the following steps, the inhibitory activity of the compound on AT1R/AT2R (IC50 value) was determined:
1) An appropriate amount of 1×TLB (Tag-lite Buffer) was prepared and well mixed for use.
2) The compound was diluted by 10 times with ddH2O or DMSO. The compound was then dilute to 4 times of the working concentration with 1×TLB and mixed well for use.
3) 8600 nM Tag-lite angiotensin receptor red agonist was diluted to 12 nM (4×Kd) with 1×TLB.
4) 5 ml 1×TLB was taken into a 15 ml centrifuge tube.
5) After thawing 1 tube of Tb-labeled AT1R/AT2R cells in a 37° C. water bath, the cells were quickly transferred to the 1×TLB in step 4), mixed gently, and centrifuged at 1200 g for 5 minutes at room temperature.
6) The supernatant was aspirated gently, and the cells were resuspended and mixed in 2.7 ml 1×TLB, and then placed at room temperature until use.
7) 10 μl cells were added to all test wells, and 5 μl 4× working solution of the compound from step 2) was added to the corresponding test wells. 5 μl 4× Tag-lite angiotensin receptor red agonist well diluted in step 3) was added to all test wells.
8) After leaving the reaction plate at room temperature for 1 h, data were measured and analyzed using Envision HTRF Reader, and the half inhibitory concentration (IC50) of the compound on AT1R/AT2R was calculated with the GraphPad Prism four-parameter equation.

Chain of AT2 Receptor (AT2R) (P50052 whole entry): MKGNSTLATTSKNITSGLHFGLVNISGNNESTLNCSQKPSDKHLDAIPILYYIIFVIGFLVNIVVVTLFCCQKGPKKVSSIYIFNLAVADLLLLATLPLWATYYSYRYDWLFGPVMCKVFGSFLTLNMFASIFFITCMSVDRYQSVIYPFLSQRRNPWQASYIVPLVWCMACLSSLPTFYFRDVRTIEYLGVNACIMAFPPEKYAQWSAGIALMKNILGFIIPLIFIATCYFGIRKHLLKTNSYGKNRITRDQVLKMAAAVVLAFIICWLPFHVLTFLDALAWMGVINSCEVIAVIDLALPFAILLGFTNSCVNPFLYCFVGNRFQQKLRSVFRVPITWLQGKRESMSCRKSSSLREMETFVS

SMILES | IC50 [nM]
CN(Cc1ccsc1)C(=O)N1[C@H]2CC[C@@H]1[C@@H](C(=O)O)N(C(=O)C(c1ccccc1)c1ccccc1)C2 [Compound C187, (1R,2S,5S)-3-(2,2-diphenylacetyl)-8-(methyl(thiophene-3-ylmethyl)carbamoyl)-3,8-diazabicyclo [3.2.1]octane-2-carboxylic acid] | 3.75
CCN(Cc1ccsc1)C(=O)N1[C@H]2CC[C@@H]1[C@@H](C(=O)O)N(C(=O)C(c1ccccc1)c1ccccc1)C2 [Compound C188, (1R,2S,5S)-3-(2,2-diphenylacetyl)-8-(ethyl(thiophene-3-ylmethyl)carbamoyl)-3,8-diazabicyclo [3.2.1]octane-2-carboxylic acid] | 7.11
Cc1ccc(COC(=O)N2[C@H]3CC[C@@H]2[C@@H](C(=O)O)N(C(=O)C(c2ccccc2)c2ccccc2)C3)cc1 [Compound C194, (1R,2S,5S)-3-(2,2-diphenylacetyl)-8-(((4-methylbenzyl)oxy)carbonyl)-3,8-diazabicyclo [3.2.1]octane-2-carboxylic acid] | 129
O=C(O)[C@@H]1[C@H]2CC[C@@H](CN1C(=O)N(c1ccccc1)c1ccccc1)N2C(=O)N(Cc1ccsc1)C1CC1 [Compound C196, (1R,2S,5S)-8-(cyclopropyl (thiophene-3-yl-methyl)carbamoyl)-3-(diphenylcarbamoyl)-3,8-diazabicyclo [3.2.1]octane-2-carboxylic acid] | 1.63
CC1(N(Cc2ccsc2)C(=O)N2[C@H]3CC[C@@H]2[C@@H](C(=O)O)N(C(=O)N(c2ccccc2)c2ccccc2)C3)CC1 [Compound C198] | 10.2
O=C(O)[C@@H]1[C@H]2CC[C@@H](CN1C(=O)N(c1ccccc1)c1ccccc1)N2C(=O)N(Cc1cccs1)C1CC1 [Compound C200, (1R,2S,5S)-8-(cyclopropyl (thiophene-2-ylmethyl)carbamoyl)-3-(diphenylcarbamoyl)-3,8-diazabicyclo [3.2.1]octane-2-carboxylic acid] | 3.25
CCN(Cc1cccs1)C(=O)N1[C@H]2CC[C@@H]1[C@@H](C(=O)O)N(C(=O)N(c1ccccc1)c1ccccc1)C2 [Compound C201, (1R,2S,5S)-3-(diphenylcarbamoyl)-8-(ethyl(thiophene-2-ylmethyl)carbamoyl)-3,8-diazabicyclo [3.2.1]octane-2-carboxylic acid] | 18.4
CCN(Cc1ccc(C)s1)C(=O)N1[C@H]2CC[C@@H]1[C@@H](C(=O)O)N(C(=O)N(c1ccccc1)c1ccccc1)C2 [Compound C202, (1R,2S,5S)-3-(diphenylcarbamoyl)-8-(ethyl((5-methylthiophen-2-yl)methyl)carbamoyl)-3,8-diazabicyclo [3.2.1]octane-2-carboxylic acid] | 3.87
Cc1ccc(CN(C)C(=O)N2[C@H]3CC[C@@H]2[C@@H](C(=O)O)N(C(=O)N(c2ccccc2)c2ccccc2)C3)s1 [Compound C203, (1R,2S,5S)-3-(diphenylcarbamoyl)-8-(methyl ((5-methylthiophen-2-yl)methyl)carbamoyl)-3,8-diazabicyclo [3.2.1]octane-2-carboxylic acid] | 13.7
Cc1ccc(CN(C(=O)N2[C@H]3CC[C@@H]2[C@@H](C(=O)O)N(C(=O)N(c2ccccc2)c2ccccc2)C3)C2CC2)s1 [Compound C204] | 4.93
O=C(O)[C@@H]1[C@H]2CC[C@@H](CN1C(=O)N(c1ccccc1)c1ccccc1)N2C(=O)N(Cc1ccsc1)CC1CC1 [Compound C205, (1R,2S,5S)-8-((cyclopropylmethyl) (thiophene-3-ylmethyl)carbamoyl)-3-(diphenylcarbamoyl)-3,8-diazabicyclo [3.2.1]octane-2-carboxylic acid] | 42.8
CCN(Cc1ccsc1)C(=O)N1[C@H]2CC[C@@H]1[C@@H](C(=O)O)N(C(=O)N(c1ccccc1)c1ccccc1)C2 [Compound C207, (1R,2S,5S)-3-(diphenylcarbamoyl)-8-(ethyl (thiophene-3-ylmethyl)carbamoyl)-3,8-diazabicyclo [3.2.1]octane-2-carboxylic acid] | 10.4
CCN(Cc1csc(C)c1)C(=O)N1[C@H]2CC[C@@H]1[C@@H](C(=O)O)N(C(=O)N(c1ccccc1)c1ccccc1)C2 [Compound C208, (1R,2S,5S)-3-(diphenylcarbamoyl)-8-(ethyl((5-methylthiophen-3-yl)methyl)carbamoyl)-3,8-diazabicyclo [3.2.1]octane-2-carboxylic acid] | 11.8
CCN(Cc1cscn1)C(=O)N1[C@H]2CC[C@@H]1[C@@H](C(=O)O)N(C(=O)N(c1ccccc1)c1ccccc1)C2 [Compound C209, (1R,2S,5S)-3-(diphenylcarbamoyl)-8-(ethyl(thiazole-4-ylmethyl)carbamoyl)-3,8-diazabicyclo [3.2.1]octane-2-carboxylic acid] | 81.4
O=C(O)[C@@H]1[C@H]2CC[C@@H](CN1C(=O)N(c1ccccc1)c1ccccc1)N2c1nccc(-c2ccccc2)n1 [Compound C210, (1R,2S,5S)-3-(diphenylcarbamoyl)-8-(4-phenylpyrimidine-2-yl)-3,8-diazabicyclo[3.2.1] octane-2-carboxylic acid] | 49.5
CCN(Cc1ccccc1Cl)C(=O)N1[C@H]2CC[C@@H]1[C@@H](C(=O)O)N(C(=O)N(c1ccccc1)c1ccccc1)C2 [Compound C212, (1R,2S,SS)-8-((2-chlorobenzyl) (ethyl)carbamoyl)-3-(diphenylcarbamoyl)-3,8-diazabicyclo [3.2.1]octane-2-carboxylic acid] | 9.04
CC(C)c1ccc(CN(C)C(=O)N2[C@H]3CC[C@@H]2[C@@H](C(=O)O)N(C(=O)N(c2ccccc2)c2ccccc2)C3)cc1 [Compound C214, (1R,2S,5S)-3-(diphenylcarbamoyl)-8-((4-isopropylbenzyl) (methyl)carbamoyl)-3,8-diazabicyclo [3.2.1]octane-2-carboxylic acid] | 11.3
C=C(C)c1ccc(CN(C)C(=O)N2[C@H]3CC[C@@H]2[C@@H](C(=O)O)N(C(=O)N(c2ccccc2)c2ccccc2)C3)cc1 [Compound C215] | 26.5
CCN(Cc1ccc(Cl)cc1)C(=O)N1[C@H]2CC[C@@H]1[C@@H](C(=O)O)N(C(=O)N(c1ccccc1)c1ccccc1)C2 [Compound C217, (1R,2S,5S)-8-((4-chlorobenzyl) (ethyl)carbamoyl)-3-(diphenylcarbamoyl)-3,8-diazabicyclo [3.2.1]octane-2-carboxylic acid] | 9.13
O=C(O)[C@@H]1[C@H]2CC[C@@H](CN1C(=O)N(c1ccccc1)c1ccccc1)N2C(=O)N(Cc1ccc(Cl)cc1)CC1CC1 [Compound C218, (1R,2S,5S)-8-((4-chlorobenzyl) (cyclopropylmethyl)carbamoyl)-3-(diphenylcarbamoyl)-3,8-diazabicyclo [3.2.1]octane-2-carboxylic acid] | 11.5
O=C(O)[C@@H]1[C@H]2CC[C@@H](CN1C(=O)N(c1ccccc1)c1ccccc1)N2C(=O)CCc1ccccc1 [Compound C221, (1R,2S,5S)-3-(diphenylcarbamoyl)-8-(3-phenylpropionyl)-3,8-diazabicyclo [3.2.1]octane-2-carboxylic acid] | 76.7
O=C(O)[C@@H]1[C@H]2CC[C@@H](CN1C(=O)C(c1ccccc1)c1ccccc1)N2C(=O)CCc1ccccc1 [Compound C222, (1R,2S,5S)-3-(2,2-diphenylacetyl)-8-(3-phenylpropionyl)-3,8-diazabicyclo [3.2.1]octane-2-carboxylic acid] | 11.7
CC(CC(=O)N1[C@H]2CC[C@@H]1[C@@H](C(=O)O)N(C(=O)C(c1ccccc1)c1ccccc1)C2)c1ccccc1 (stereo partly drawn) [Compound C223, (1R,2S,5S)-3-(2,2-diphenylacetyl)-8-(3-phenylbutyryl)-3,8-diazabicyclo [3.2.1]octane-2-carboxylic acid] | 7.87
CC(CC(=O)N1[C@H]2CC[C@@H]1[C@@H](C(=O)O)N(C(=O)N(c1ccccc1)c1ccccc1)C2)c1ccccc1 (stereo partly drawn) [Compound C224, (1R,2S,5S)-3-(diphenylcarbamoyl)-8-(3-phenylbutylyl)-3,8-diazabicyclo [3.2.1]octane-2-carboxylic acid] | 23.8
CC(c1ccccc1)N(C)C(=O)N1[C@H]2CC[C@@H]1[C@@H](C(=O)O)N(C(=O)N(c1ccccc1)c1ccccc1)C2 (stereo partly drawn) [Compound C225, (1R,2S,5S)-3-(diphenylcarbamoyl)-8-(methyl (1-phenylethyl)carbamoyl)-3,8-diazabicyclo [3.2.1]octane-2-carboxylic acid] | 11.7
C[C@H](c1ccccc1)N(C)C(=O)N1[C@H]2CC[C@@H]1[C@@H](C(=O)O)N(C(=O)N(c1ccccc1)c1ccccc1)C2 [Compound C226, (1R,2S,5S)-3-(diphenylcarbamoyl)-8-(methyl((R)-1-phenylethyl)carbamoyl)-3,8-diazabicyclo [3.2.1]octane-2-carboxylic acid] | 12.7
C[C@@H](c1ccccc1)N(C)C(=O)N1[C@H]2CC[C@@H]1[C@@H](C(=O)O)N(C(=O)N(c1ccccc1)c1ccccc1)C2 [Compound C227, (1R,2S,5S)-3-(diphenylcarbamoyl)-8-(methyl ((S)-1-phenylethyl)carbamoyl)-3,8-diazabicyclo [3.2.1]octane-2-carboxylic acid] | 18.3
